One series has as its system HIV. The experiment in a line: microbe, parasite or virus in culture. As to conditions: for EC50: Human immunodeficiency virus 1, A549. The format is cell-based.
A short description of the next series: in vitro. As to conditions: human.
In another series the test system is H5N1 virus. Nature of the series: microbe, parasite or virus in culture. Format: cell-based, H5N1 influenza virus. As to conditions: Influenza A virus, read-out: % Inhibition against H5N1 virus; for inhibition at 1 µg/mL: H5N1, A549, 1000 ng/mL; for inhibition at 5 µg/mL: H5N1, A549, 5000 ng/mL; for inhibition at 0.05 µg/mL: H5N1, A549, 50 ng/mL; for inhibition at 0.25 µg/mL: H5N1, A549, 250 ng/mL.

Bounds are passed on as bounds.

As usually defined, the EC50 is the concentration giving half of the maximal effect. A higher EC50 goes with a less potent agent. As usually defined, the inhibition is the drop in the measured response relative to a control, in per cent.

`COc1cc2c(OC3O[C@H](C)[C@@H](OC(C)=O)[C@H](OC(C)=O)[C@H]3O)c3c(c(-c4ccc5c(c4)OCO5)c2cc1OC)C(=O)OC3` (stereo partly drawn) [Compound 27bd, 3″, 4″-Diacetyl-7-O-β-D-patentiflorin A]: the concentration for a half-maximal effect (EC50) with HIV worked out at 6.39 nM. In addition, in “in vitro” (CC50 (nM)), the CC50 was 421 nM. `COc1cc2c(OC3O[C@@H](C)[C@@H](O)[C@@H](O)[C@@H]3O)c3c(c(-c4ccc5c(c4)OCO5)c2cc1OC)C(=O)OC3` (stereo partly drawn) [Compound 26d, 7-O-β-L-fucopyranosyldiphyllin]: in the series with HIV, the “anti-HIV activity in terms of SI values” is given as “much more improved anti-HIV activity” and the EC50 is 42.3 nM. Further, in the series “in vitro” (CC50 (nM)), the CC50 is greater than 9500 nM. On the same counts, the results for `COc1cc2cc3c(c(-c4ccc5c(c4)OCO5)c2cc1OC)C(=O)OC3` [Compound 19d] are “much more improved anti-HIV activity”, 22.9 nM and 5430 nM. In the case of `COc1cc2c(OC)c3c(c(-c4ccc5c(c4)OCO5)c2cc1OC)C(=O)OC3` [Compound 17b], in the series on HIV, the “anti-HIV activity in terms of SI values” is recorded as “much more improved anti-HIV activity” and the EC50 worked out at 2.6 nM. The molecule also showed a CC50 in “in vitro” (CC50 (nM)) of 2140 nM. As for `COc1cc2c(Nc3ccccc3)c3c(c(-c4ccc5c(c4)OCO5)c2cc1OC)C(=O)OC3` [Compound 19f], the EC50 in the series on HIV turned out to be 976 nM. In addition, in “in vitro” (CC50 (nM)), the CC50 was 4510 nM. In the same order, the values of `COc1cc2c(-c3ccc4c(c3)OCO4)c3c(c(N4CCOCC4)c2cc1OC)COC3=O` [Compound 19m] are 88.6 nM and 1500 nM. On the same counts, the results for `C=CCOC(=O)O[C@H]1[C@H](O)[C@@H](OC(=O)OCC=C)C(Oc2c3c(c(-c4ccc5c(c4)OCO5)c4cc(OC)c(OC)cc24)C(=O)OC3)O[C@@H]1C` (stereo partly drawn) [Compound 29b, 2″,4″-O-diallyl oxycarbonyl-7-O-β-D-patentiflorin A] are 4.7 nM and 187 nM. In “in vitro” (CC50 (nM)), `COc1cc2c(OC3O[C@H](C)[C@@H](O)[C@H](OC(=O)N(C)C)[C@H]3O)c3c(c(-c4ccc5c(c4)OCO5)c2cc1OC)C(=O)OC3` (stereo partly drawn) [Compound 31f, 3″-O-dimethylcarbamyl-7-O-β-D-patentiflorin A] came in with a CC50 of 3.74 nM.

As for `COc1cc2c(OCCO)c3c(c(-c4ccc5c(c4)OCO5)c2cc1OC)C(=O)OC3` [Compound 15a], the EC50 in the series on HIV is 33.6 nM. For the same molecule, in “in vitro” (CC50 (nM)), the CC50 amounted to 918 nM. In turn, `COc1cc2c(OC3OC[C@@H](OC(C)=O)[C@H](O)[C@H]3OC(C)=O)c3c(c(-c4ccc5c(c4)OCO5)c2cc1OC)C(=O)OC3` (stereo partly drawn) [Compound 27ae, 2″,4″-Diacetyl-7-O-β-D-xylosyldiphyllin] returned a CC50 in the series “in vitro” (CC50 (nM)) of 2590 nM. Same read-out and setting: to `COc1cc2c(OC3OC[C@@H](OC(C)=O)[C@H](OC(C)=O)[C@H]3O)c3c(c(-c4ccc5c(c4)OCO5)c2cc1OC)C(=O)OC3` (stereo partly drawn) [Compound 27ad, 3″, 4″-Diacetyl-7-O-β-D-xylosyldiphyllin] belongs 783 nM. `COc1cc2c(OC3O[C@H](C)[C@@H](OC(C)=O)[C@H](O)[C@H]3O)c3c(c(-c4ccc5c(c4)OCO5)c2cc1OC)C(=O)OC3` (stereo partly drawn) [Compound 27ba, 4″-Acetyl-7-O-β-D-patentiflorin A] had an EC50 in the series with HIV of 8.47 nM. Also, the CC50 in “in vitro” (CC50 (nM)) is 1160 nM. Turning to `COc1cc2c(OC3OC[C@@H](O)[C@H](OC(C)=O)[C@H]3O)c3c(c(-c4ccc5c(c4)OCO5)c2cc1OC)C(=O)OC3` (stereo partly drawn) [Compound 27ab, 3″-Acetyl-7-O-β-D-xylosyldiphyllin], in the series on H5N1 virus, the inhibition at 1 µg/mL amounted to 96.9% and the inhibition at 5 µg/mL is 97.8%. In the series “in vitro” (CC50 (nM)), this molecule yielded a CC50 of 2760 nM. As for `COc1cc2c(-c3ccc4c(c3)OCO4)c3c(c(C(C)O)c2cc1OC)COC3=O` (stereo not drawn) [Compound 20], the EC50 with HIV came to 21.7 nM. In “in vitro” (CC50 (nM)), this molecule had a CC50 of 389 nM. Take `COc1cc2c(OC(=O)C3CCCC3)c3c(c(-c4ccc5c(c4)OCO5)c2cc1OC)C(=O)OC3` [Compound 17f]: in the series on HIV, the response was half-maximal at 772 nM (EC50). In “in vitro” (CC50 (nM)), this molecule displayed a CC50 of 7070 nM. As to `C#CCOc1c2c(c(-c3ccc4c(c3)OCO4)c3cc(OC)c(OC)cc13)C(=O)OC2` [Compound 17c], in the series on HIV, the “anti-HIV activity in terms of SI values” is on record as “much more improved anti-HIV activity” and the EC50 is 4.8 nM. The molecule also displayed a CC50 in “in vitro” (CC50 (nM)) of 890 nM.

In the series on HIV, `COc1cc2c(OCC(C)(C)O)c3c(c(-c4ccc5c(c4)OCO5)c2cc1OC)C(=O)OC3` [Compound 15b] yielded an EC50 of 15.5 nM. In “in vitro” (CC50 (nM)), the CC50 was found to be 1330 nM. In turn, `CNC(=O)COc1c2c(c(-c3ccc4c(c3)OCO4)c3cc(OC)c(OC)cc13)C(=O)OC2` [Compound 14b] displayed an EC50 with HIV of 278 nM. This molecule showed a CC50 in “in vitro” (CC50 (nM)) of 2120 nM. On to `CCCC(=O)O[C@H]1[C@H](O)[C@@H](C)OC(Oc2c3c(c(-c4ccc5c(c4)OCO5)c4cc(OC)c(OC)cc24)C(=O)OC3)[C@@H]1O` (stereo partly drawn) [Compound 31c, 3″-O-butyryl-7-O-β-D-patentiflorin A], for which, in the series with HIV, the “anti-HIV activity in terms of SI values” is listed as “much more improved anti-HIV activity” and the EC50 worked out at 0.03 nM. For the same molecule, in “in vitro” (CC50 (nM)), the CC50 was 13.4 nM. Take `COc1cc2c(OS(=O)(=O)C(F)(F)F)c3c(c(-c4ccc5c(c4)OCO5)c2cc1OC)C(=O)OC3` [Compound 18]: it took 488 nM to reach a half-maximal effect with HIV (EC50). In addition, the CC50 in the series “in vitro” (CC50 (nM)) was 1360 nM. In the same order, the values of `COc1ccc(C(=O)Oc2c3c(c(-c4ccc5c(c4)OCO5)c4cc(OC)c(OC)cc24)C(=O)OC3)cc1` [Compound 17h] are 96.5 nM and 1460 nM. Regarding `COc1cc2c(OC3OC[C@@H](O)[C@H](O)[C@H]3O)c3c(c(-c4ccc5c(c4)OCO5)c2cc1OC)C(=O)OC3` (stereo partly drawn) [Compound 26a, 7β-D-xylosyloxydiphyllin], in the series on H5N1 virus, the inhibition at 1 µg/mL amounted to 93.6% and the inhibition at 5 µg/mL was found to be 97.8%. Further, the CC50 in “in vitro” (CC50 (nM)) came to 6220 nM. `COc1cc2c(Nc3ccc(C(F)(F)F)cc3)c3c(c(-c4ccc5c(c4)OCO5)c2cc1OC)C(=O)OC3` [Compound 19e] showed an EC50 with HIV of 212 nM. The CC50 in “in vitro” (CC50 (nM)) was greater than 9550 nM. On the same counts, the results for `COc1cc2c(C#C[Si](C)(C)C)c3c(c(-c4ccc5c(c4)OCO5)c2cc1OC)C(=O)OC3` [Compound 19o] are 35.7 nM and 1220 nM. As to `COc1cc2c(OC3O[C@H](C)[C@@H](O)[C@H](OC(=O)C(Cl)(Cl)Cl)[C@H]3O)c3c(c(-c4ccc5c(c4)OCO5)c2cc1OC)C(=O)OC3` (stereo partly drawn) [Compound 31k, 3″-O-trichloroacetyl-7-O-β-D-patentiflorin A], in the series with H5N1 virus, the inhibition at 0.05 µg/mL came out at 86% and the inhibition at 0.25 µg/mL was determined as 95.7%. Further, the CC50 in “in vitro” (CC50 (nM)) is 508 nM.

On to `COc1cc2c(OC3O[C@H](C)[C@@H](O)[C@H](OC(=O)c4ccc(Cl)cc4)[C@H]3O)c3c(c(-c4ccc5c(c4)OCO5)c2cc1OC)C(=O)OC3` (stereo partly drawn) [Compound 31h, 3″-O-p-chlorobenzoyl-7-O-β-D-patentiflorin A], for which, in the series with H5N1 virus, the inhibition at 0.05 µg/mL was found to be 94.6% and the inhibition at 0.25 µg/mL is 97.6%. This molecule yielded a CC50 in the series “in vitro” (CC50 (nM)) of 336 nM. `COc1cc2c(C3=CCN(C(=O)OC(C)(C)C)CC3)c3c(c(-c4ccc5c(c4)OCO5)c2cc1OC)C(=O)OC3` [Compound 19l] returned an EC50 in the series on HIV of 75.9 nM. Further, the CC50 in “in vitro” (CC50 (nM)) worked out at 4190 nM. On the same counts, the results for `COc1cc2c(-c3cccs3)c3c(c(-c4ccc5c(c4)OCO5)c2cc1OC)C(=O)OC3` [Compound 19h] are 270 nM and 2390 nM.

With `COc1cc2c(OC3O[C@H](C)[C@@H](O)[C@H](OC(=O)c4ccccc4)[C@H]3O)c3c(c(-c4ccc5c(c4)OCO5)c2cc1OC)C(=O)OC3` (stereo partly drawn) [Compound 31d, 3″-O-benzoyl-7-O-β-D-patentiflorin A], in the series with HIV, a half-maximal effect (EC50) was put at 1.36 nM. The CC50 in the series “in vitro” (CC50 (nM)) is greater than 63 nM. Consider `COc1cc2c(OC3O[C@H](C)[C@@H](O)[C@H](OC(=O)c4cnccn4)[C@H]3O)c3c(c(-c4ccc5c(c4)OCO5)c2cc1OC)C(=O)OC3` (stereo partly drawn) [Compound 31i, 3″-O-pyrazinecarbonyl-7-O-β-D-patentiflorin A], for which, in the series on HIV, the “anti-HIV activity in terms of SI values” was “much more improved anti-HIV activity”. In the series with HIV, `COc1cc2c(OC3O[C@H](C)[C@@H](O)[C@H](OC(=O)c4cc([N+](=O)[O-])cc([N+](=O)[O-])c4)[C@H]3O)c3c(c(-c4ccc5c(c4)OCO5)c2cc1OC)C(=O)OC3` (stereo partly drawn) [Compound 31b, 3″-O-(3,5-dinitrobenzoyl)-7-O-β-D-patentiflorin A] registered an EC50 of 13.4 nM. The molecule further gave a CC50 in the series “in vitro” (CC50 (nM)) of 684 nM. On the same counts, the results for `COc1cc2c(OCC(=O)O)c3c(c(-c4ccc5c(c4)OCO5)c2cc1OC)C(=O)OC3` [Compound 13] are 23100 nM and greater than 114000 nM. `COc1cc2c(OC(C)=O)c3c(c(-c4ccc5c(c4)OCO5)c2cc1OC)C(=O)OC3` [Compound 16]: in “in vitro” (CC50 (nM)), the CC50 amounted to 3400 nM.

For the molecule `COc1cc2c(OC3OC[C@@H](O)[C@H](O)[C@H]3OC(C)=O)c3c(c(-c4ccc5c(c4)OCO5)c2cc1OC)C(=O)OC3` (stereo partly drawn) [Compound 27ac], the CC50 in “in vitro” (CC50 (nM)) turned out to be 2940 nM. On the same count and under the same terms, to `COc1cc2c(OC3O[C@H](C)[C@@H](OC(C)=O)[C@H](OC(C)=O)[C@H]3OC(C)=O)c3c(c(-c4ccc5c(c4)OCO5)c2cc1OC)C(=O)OC3` (stereo partly drawn) [Compound 25b, Peracetylated Patentiflorin A] belongs 259 nM; to `COc1cc2c(OC3OC[C@H](O)[C@H](O)[C@H]3O)c3c(c(-c4ccc5c(c4)OCO5)c2cc1OC)C(=O)OC3` (stereo partly drawn) [Compound 26c, 7-O-α-L-arabinosyldiphyllin], greater than 9760 nM; to `COc1cc2c(OC3OC[C@@H](O)[C@H](OC(C)=O)[C@H]3OC(C)=O)c3c(c(-c4ccc5c(c4)OCO5)c2cc1OC)C(=O)OC3` (stereo partly drawn) [Compound 27af, 2″,3″-Diacetyl-7-O-β-D-xylosyldiphyllin], 2250 nM. For `CC(=O)O[C@H]1C(=O)[C@@]2(C)[C@H]([C@H](OC(=O)c3ccccc3)[C@]3(O)C[C@H](OC(=O)[C@H](O)[C@@H](NC(=O)c4ccccc4)c4ccccc4)C(C)=C1C3(C)C)[C@]1(OC(C)=O)CO[C@@H]1C[C@@H]2O` [taxol, reference compound], in “in vitro” (CC50 against the host cell line A549), the CC50 was 2.99 nM.

For the origin of these results see patent US11638713B2, “Patentiflorin A analogs as antiviral agents” (priority 2019, dated 2023).
